From patent US8236761B2, “C-Met receptor regulation by angiotensin IV (AT4) receptor ligands” (Washington State University Research Foundation, priority 2006, dated 2012)
Non-standard residues stand in square brackets, D forms with d. No end group written: not given here. Nle = CCCC[C@H](N)C(=O)O

Key:
MDCK cells = experiment: HGF stimulated MDCK cell collagen I invasion (transwell chamber); assay type: cell-based, canine; details: HGF 20 ng/ml, twelve hours
Protocol: FIG. 9A: Modulation of HGF stimulated MDCK cell collagen I invasion in the Costar transwell chamber invasion assay. 50 μl of collagen I was added to the top chamber of the transwell chamber (BD Biosciences) and gelled by adjusting it to a physiological pH with a 1:1:1 mixture of 10× Modified Eagle's Medium, 1 M sodium bicarbonate, and 0.1 M sodium hydroxide for 30 minutes at 37° C. 50,000 MDCK cells in 1% FBS DMEM were seeded into the inside of the top chamber over the gelled collagen I solution and allowed to attach for two hours at 37° C. After the cells had attached to the collagen 1, the indicated concentrations of Norleual were added to the top chamber. […] The cells that had invaded the collagen and migrated to the underside of the membrane were counted in five random fields at 40× on a light microscope. The effect of treatment was determined using the one-way ANOVA with tukey's post-hoc analysis (Prism statistical analysis software). * indicates p<0.01 vs. HGF alone treatment. […] The cells that had invaded the collagen and migrated to the underside of the membrane were counted in five random fields at 40× on a light microscope. The effect of treatment was determined using the one-way ANOVA with tukey's post-hoc analysis (Prism statistical analysis software). * indicates p<0.05 vs. HGF treatment. […]

[1] = system: B16-F10 murine melanoma cells; experiment: B16-F10 scratch wound closure assay; assay type: cell-based; details: six hours after scratch
Protocol: Scratch Assay. Confluent B16-F10 cells in 48 well plates were scratched with a 200 μl pipette tip. Wells were treated with vehicle, HGF, and/or Norleual. Photos were taken at various time points. Photos were graded by two investigators.
See Example 1 for Materials and Methods. Norleual was applied to HGF treated B16-F10 murine melanoma cells in a scratch wound assay. HGF accelerated the wound closure, however Norleual was able to attenuate HGF stimulated closure six hours after scratch (FIG. 11A).

[2] = system: aortic ring angiogenic sprouts; experiment: Ex vivo mouse aortic ring angiogenesis assay; details: 100 pM Norleual, four days, EGM-2
Protocol: FIG. 16 depicts inhibition of angiogenesis by Norleual (Compound 2, SEQ ID NO:43) in the mouse aortic ring assay. Rings were incubated in EGM-2 media (Cambrex) with (n=8) or without (n=6) 100 pM Norleual for four days. Digital photos of the rings were taken on day four. FIG. 16A: Quantification of aortic ring angiogenesis. Areas covered by angiogenic sprouts were quantified from day four ring photos, control (−) and Norelual treated (+) (p-value=0.012* and error bars indicate ±SEM). FIG. 16B: HUVECs were treated for 5 minutes with HGF and/or Norleual at indicated concentrations. Lysates were IP with anti-c-Met and IB with anti-c-Met or Gab1.
Aortic ring assay. 48-well plates were coated with Growth Factor Reduced Matrigel (BD Biosciences, San Jose, Calif., USA, thick gel method). Under microscopic dissection, the thoracic aorta of a 6 week-old C57 mouse was cut into 0.5 mm sections, washed in PBS, and placed in the Matrigel-coated wells. […] Photos were taken and angiogenic area was measured using Image J (Image Processing and Data Analysis in Java, available from NIH, Bethesda, Md.). […]
See Example 1 for Materials and Methods. Angiogenesis was evaluated with the ex vivo mouse aortic ring assay in the presence and absence of Norleual. […]

HUVECs = experiment: Extracellular matrix related gene microarray in HUVECs; assay type: cell-based, human; details: 8 days, 1 pM
Protocol: Angiotensin-like factors as candidate c-Met receptor ligands were tested for the ability to modulate expression of extracellular matrix-related proteins in human umbilical vein endothelial cells (HUVECs) by gene microarray. Briefly, HUVECs were treated for 8 days in the presence or absence of test compounds at a concentration of 1 pM; Norleual (Compound 2, SEQ ID NO:43) was used as an exemplary angiotensin-like factor. RNA was harvested and transcriptional activities of 96 extracellular matrix related genes were assessed using gene microarrays.

With “Nle-Tyr-Leu-ψ-His-Pro-Phe ([Nle]YLHPF; also: reduced peptide bond psi(CH2NH2) between Leu and His) [Norleual]” the “c-Met mediated collagen I invasion by MDCK cells” value (MDCK cells) was “inhibition”, the “c-Met mediated collagen I invasion by MDCK cells” value (MDCK cells; listed as Compound 2) was “inhibited” and the “HGF stimulated scratch wound closure” value [1] was “attenuate”. For the same substance, the “Angiogenic growth of aortic rings” value [2] was “significantly attenuated” and the “Change in gene expression versus control: CD44, catenin, catenin β, catenin δ1, MMP-1, PAI-1, thrombospondin 1, integrin α-2” value (HUVECs) was “at least two fold”.
